# Test results published in patent publication US20220127297A1, “Novel Antibacterial 3"-Derivatives Of 4,6-Disubstituted 2,5-Dideoxystreptamine Aminoglycoside Antibiotics” (AGILeBiotics B.V., priority 2018, published 2022).
# Where two headings read alike, the source gives them in different places.
# Test system: clinical isolates of multidrug-resistant Klebsiella pneumoniae (and ATCC43816)
# Test: MIC determination at Fidelta, clinical isolates
# Assay type: cell-based
# Text: 3.4.2 MIC Determination at Fidelta (Croatia)
# Tested reference compounds. Amikacin sulfate (Cat. No. 01693, Chem-Impex), Gentamicin sulfate (Cat. No. G4918, Sigma Aldrich), Ceftazidime Pentahydrate (Cat. No. 1098130, USP), Meropenem (Cat. No. 1392454, USP), Tobramycin (Cat. No. 1667508, USP).
# Microbial strains. Klebsiella pneumoniae KP-1919 (abdomen), Klebsiella pneumoniae KP-1935 (urine), Klebsiella pneumoniae KP-1936 (abscess), Klebsiella pneumoniae KP-1937 (blood), Klebsiella pneumoniae KP-1942 (urine), Klebsiella pneumoniae KP-1944 (blood), Klebsiella pneumoniae KP-2027 (tracheal aspirate), Klebsiella pneumoniae KP-2029 (urine), Klebsiella pneumoniae KP-2030 (trachea), Klebsiella pneumoniae KP-2031 (skin), Klebsiella pneumoniae KP-2032 (urine), Klebsiella pneumoniae KP-2033 (urine), Klebsiella pneumoniae KP-2034 (urine), Klebsiella pneumoniae KP-2035 (urine), Klebsiella pneumoniae KP-2036 (urine), Klebsiella pneumoniae KP-2037 (urine), Klebsiella pneumoniae ATCC 43816, Pseudomonas aeruginosa PA-1948 (wound), Pseudomonas aeruginosa PA-1949 (urine), Pseudomonas aeruginosa PA-1950 (sputum), Pseudomonas aeruginosa PA-1952 (wound), Pseudomonas aeruginosa PA-1953 (urine), Pseudomonas aeruginosa PA-1954 (sputum), Pseudomonas aeruginosa PA-1967 (blood), Pseudomonas aeruginosa ATCC27853, Acinetobacter baumannii AB-1931 (urine), Acinetobacter baumannii AB-1932 (urine), Acinetobacter baumannii AB-2017 (bronchial aspirate), Acinetobacter baumannii AB-2018 (skin), Acinetobacter baumannii AB-2019 (bronchial aspirate), Acinetobacter baumannii AB-1964 (blood), Acinetobacter baumannii AB-2025 (skin), Acinetobacter baumannii AB-2026 (skin), Acinetobacter baumannii ATCC17978, methicillin-resistant Staphylococcus aureus MRSA-1995 (liquor), methicillin-resistant Staphylococcus aureus MRSA-1998 (wound), methicillin-resistant Staphylococcus aureus MRSA-1999 (skin), methicillin-resistant Staphylococcus aureus MRSA-2003 (wound), vancomycin-resistant Enterococcus faecium VRE-2005 (urine), vancomycin-resistant Enterococcus faecium VRE-2006 (urine), vancomycin-resistant Enterococcus faecium VRE-2007 (urine), vancomycin-resistant Enterococcus faecium VRE-2008 (urine), vancomycin-resistant Enterococcus faecium VRE-2009 (urine), vancomycin-resistant Enterococcus faecium VRE-2010 (urine), vancomycin-resistant Enterococcus faecium VRE-2011 (rectum), vancomycin-resistant Enterococcus faecium VRE-2012 (rectum), vancomycin-resistant Enterococcus faecium VRE-2013 (rectum).
# Culture media and equipment. BBL™ Mueller Hinton Broth (REF 275730, Lot. 7009699, Becton Dickinson); Mueller Hinton Agar 2 (Ref. No. 97580-500G-F, Lot. No. BCBV4646, Sigma); Cellstar, 96-well plates, U-bottom (Cat. No. 650180, Lot. No. E14123EB, Greiner Bio-one); 96-well deep well plate, 1 mL (Cat. No. 278606, Nunc); Incubator (Binder); Laminar flow (Thermo Scientific); BioPhotometer (Eppendorf); DEN-1B (McFarland Densitometer, Biosan); McFarland standards (polymer microparticle suspension, Biosan).
# Compound preparation. For testing, 5 mg/mL DMSO solutions of the test compounds and reference antibiotics were used. Out of these DMSO solutions, 43.5 μL was transferred to 1656.5 μL of MH media in a deep well plate. Out of these working solutions 100 μL was transferred to wells in the third column of 96-well plates. Plates are previously filled with 50 μL of MH media in all wells except for the wells in the third column. After compound and antibiotic addition, 50 μL was transferred from the third to the fourth column, then from the fourth to the fifth and so on. In this manner, the compounds and antibiotics were plated in 96-well plate in serial two-fold dilutions giving a final concentration range of 64-0.125 μg/mL.
# Inoculum preparation. Designations used for clinical isolates were from Fidelta strain collection bank. Microorganisms used were all revived from skim milk storage at −70° C. by plating them on MH agar plates.
# [1] = Klebsiella pneumoniae, ATCC43816, KP-1919, Abdomen/VIM, ESBL, read-out: MIC 90
# [2] = Klebsiella pneumoniae, ATCC43816, KP-1935, Urine/ESBL, NDM, read-out: MIC 90
# [3] = Klebsiella pneumoniae, ATCC43816, KP-1936, Abscess/NDM, read-out: MIC 90
# [4] = Klebsiella pneumoniae, ATCC43816, KP-1937, Blood/VIM, ESBL, read-out: MIC 90
# [5] = Klebsiella pneumoniae, ATCC43816, KP-1942, Urine (catheter)/VIM, read-out: MIC 90
# [6] = Klebsiella pneumoniae, ATCC43816, KP-1944, Blood/NDM, read-out: MIC 90
# [7] = Klebsiella pneumoniae, ATCC43816, KP-2027, Tracheal aspirate/ESBL, OXA-48, ColR, read-out: MIC 90
# [8] = Klebsiella pneumoniae, ATCC43816, KP-2029, Urine/ESBL, OXA-48, read-out: MIC 90
# [9] = Klebsiella pneumoniae, ATCC43816, KP-2030, Trachea/ESBL, OXA-48, read-out: MIC 90
# [10] = Klebsiella pneumoniae, ATCC43816, KP-2031, Skin/ESBL, OXA-48, read-out: MIC 90
# [11] = Klebsiella pneumoniae, ATCC43816, KP-2032, Urine/ESBL, OXA-48, read-out: MIC 90
# [12] = Klebsiella pneumoniae, ATCC43816, KP-2033, Urine/OXA-A8, read-out: MIC 90
# [13] = Klebsiella pneumoniae, ATCC43816, KP-2034, Urine/ESBL, OXA-48, read-out: MIC 90
# [14] = Klebsiella pneumoniae, ATCC43816, KP-2035, Urine/ESBL, OXA-48, read-out: MIC 90
# [15] = Klebsiella pneumoniae, ATCC43816, KP-2036, Urine/ESBL, read-out: MIC 90
# [16] = Klebsiella pneumoniae, ATCC43816, KP-2037, Urine/ESBL, OXA-48, read-out: MIC 90
compound,measurement,setting,value
"N=C(N)NC1[C@@H](O)C(OC2[C@@H](F)[C@H](O[C@H]3OC(CN)[C@@H](O)[C@H](O)C3N)C(N)C[C@H]2NC(=O)[C@@H](O)CCN)O[C@H](CO)[C@H]1O (some centres unmarked) [ABX4006, KanaB-AHB-F-Gua]",MIC90,[1],1 µg/mL
same,MIC90,[2],0.5 µg/mL
same,MIC90,[3],0.5 µg/mL
same,MIC90,[4],4 µg/mL
same,MIC90,[5],0.25 µg/mL
same,MIC90,[6],1 µg/mL
same,MIC90,[7],0.5 µg/mL
"N=C(N)NC1C(O)[C@@H](CO)OC(OC2C(F)[C@H](O[C@H]3OC(CN)[C@@H](O)CC3N)C(N)C[C@H]2NC(=O)[C@@H](O)CCN)[C@@H]1O (some centres unmarked) [ABX5006, Tobra-AHB-F-Gua]",MIC90,K. pneumoniae ATCC43816 strain,0.25 µg/mL
same,MIC90,[1],0.5 µg/mL
same,MIC90,[2],0.5 µg/mL
same,MIC90,[3],0.5 µg/mL
same,MIC90,[4],2 µg/mL
same,MIC90,[5],0.25 µg/mL
same,MIC90,[6],1 µg/mL
same,MIC90,[7],0.5 µg/mL
same,MIC90,[8],0.25 µg/mL
same,MIC90,[9],0.5 µg/mL
same,MIC90,[10],0.5 µg/mL
same,MIC90,[11],0.25 µg/mL
same,MIC90,[12],0.25 µg/mL
same,MIC90,[13],0.5 µg/mL
same,MIC90,[14],0.5 µg/mL
same,MIC90,[15],0.25 µg/mL
same,MIC90,[16],0.5 µg/mL
"N=C(NCCN)NC1C(O)[C@@H](CO)OC(OC2C(F)[C@H](O[C@H]3OC(CN)[C@@H](O)CC3N)C(N)C[C@H]2NC(=O)[C@@H](O)CCN)[C@@H]1O (some centres unmarked) [ABX5020, Tobra-AHB-F-Gua-2-amino-ethyl]",MIC90,K. pneumoniae ATCC43816 strain,1 µg/mL
same,MIC90,[1],4 µg/mL
same,MIC90,[2],4 µg/mL
same,MIC90,[3],2 µg/mL
same,MIC90,[4],8 µg/mL
same,MIC90,[5],1 µg/mL
same,MIC90,[6],4 µg/mL
same,MIC90,[7],2 µg/mL
"N=C(NC[C@@H]1CCCN1)NC1[C@@H](O)C(OC2[C@@H](F)[C@H](O[C@H]3OC(CN)[C@@H](O)CC3N)C(N)C[C@H]2NC(=O)[C@@H](O)CCN)O[C@H](CO)[C@H]1O (stereo partly drawn) [ABX5026, Tobra-AHB-F-Gua (S) pyrrolidine-2-yl-methyl]",MIC90,K. pneumoniae ATCC43816 strain,1 µg/mL
same,MIC90,[1],1 µg/mL
same,MIC90,[2],1 µg/mL
same,MIC90,[3],1 µg/mL
same,MIC90,[4],2 µg/mL
same,MIC90,[5],1 µg/mL
same,MIC90,[6],2 µg/mL
same,MIC90,[7],1 µg/mL
same,MIC90,[8],0.5 µg/mL
same,MIC90,[9],1 µg/mL
same,MIC90,[10],0.5 µg/mL
same,MIC90,[11],0.5 µg/mL
same,MIC90,[12],0.5 µg/mL
same,MIC90,[13],1 µg/mL
same,MIC90,[14],0.5 µg/mL
same,MIC90,[15],0.5 µg/mL
same,MIC90,[16],0.5 µg/mL
"N=C(NC[C@@H]1CCNC1)NC1[C@@H](O)C(OC2[C@@H](F)[C@H](O[C@H]3OC(CN)[C@@H](O)CC3N)C(N)C[C@H]2NC(=O)[C@@H](O)CCN)O[C@H](CO)[C@H]1O (stereo partly drawn) [ABX5039, Tobra-AHB-F-Gua (R) pyrrolidine-3-ylmethyl]",MIC90,K. pneumoniae ATCC43816 strain,1 µg/mL
same,MIC90,[1],1 µg/mL
same,MIC90,[2],2 µg/mL
same,MIC90,[3],1 µg/mL
same,MIC90,[4],2 µg/mL
same,MIC90,[5],1 µg/mL
same,MIC90,[6],2 µg/mL
same,MIC90,[7],1 µg/mL
same,MIC90,[8],0.5 µg/mL
same,MIC90,[9],1 µg/mL
same,MIC90,[10],0.5 µg/mL
same,MIC90,[11],0.5 µg/mL
same,MIC90,[12],0.5 µg/mL
same,MIC90,[13],1 µg/mL
same,MIC90,[14],1 µg/mL
same,MIC90,[15],1 µg/mL
same,MIC90,[16],0.5 µg/mL
"NCC[C@H](O)C(=O)N[C@@H]1C[C@H](N)[C@@H](O[C@H]2O[C@H](CN)[C@@H](O)[C@H](O)[C@H]2O)[C@H](O)[C@H]1O[C@H]1O[C@H](CO)[C@@H](O)[C@H](N)[C@H]1O [Amikacin, amikacin, reference compound]",MIC90,"Klebsiella pneumoniae, ATCC43816",0.5 µg/mL
same,MIC90,"Klebsiella pneumoniae, ATCC43816, KP-1919, Abdomen/VIM, ESBL",8 µg/mL
same,MIC90,"Klebsiella pneumoniae, ATCC43816, KP-1935, Urine/ESBL, NDM",8 µg/mL
same,MIC90,"Klebsiella pneumoniae, ATCC43816, KP-1936, Abscess/NDM",4 µg/mL
same,MIC90,"Klebsiella pneumoniae, ATCC43816, KP-1937, Blood/VIM, ESBL",32 µg/mL
same,MIC90,"Klebsiella pneumoniae, ATCC43816, KP-1942, Urine (catheter)/VIM",2 µg/mL
same,MIC90,"Klebsiella pneumoniae, ATCC43816, KP-1944, Blood/NDM",8 µg/mL
same,MIC90,"Klebsiella pneumoniae, ATCC43816, KP-2027, Tracheal aspirate/ESBL, OXA-48, ColR",4 µg/mL
same,MIC90,"Klebsiella pneumoniae, ATCC43816, KP-2029, Urine/ESBL, OXA-48",8 µg/mL
same,MIC90,"Klebsiella pneumoniae, ATCC43816, KP-2030, Trachea/ESBL, OXA-48",16 µg/mL
same,MIC90,"Klebsiella pneumoniae, ATCC43816, KP-2031, Skin/ESBL, OXA-48",8 µg/mL
same,MIC90,"Klebsiella pneumoniae, ATCC43816, KP-2032, Urine/ESBL, OXA-48",4 µg/mL
same,MIC90,"Klebsiella pneumoniae, ATCC43816, KP-2033, Urine/OXA-A8",2 µg/mL
same,MIC90,"Klebsiella pneumoniae, ATCC43816, KP-2034, Urine/ESBL, OXA-48",16 µg/mL
same,MIC90,"Klebsiella pneumoniae, ATCC43816, KP-2035, Urine/ESBL, OXA-48",8 µg/mL
same,MIC90,"Klebsiella pneumoniae, ATCC43816, KP-2036, Urine/ESBL",8 µg/mL
same,MIC90,"Klebsiella pneumoniae, ATCC43816, KP-2037, Urine/ESBL, OXA-48",4 µg/mL
